In US20220162191A1, “SMALL MOLECULE MODULATORS OF IL-17” (LEO PHARMA A/S, priority 2019, published 2022):

target: T1, human IL-17AA (Homo sapiens, UniProt Q16552); assay: IL-8 release assay in human epithelial keratinocytes adult (HEKa); type: cell-based; details: 3 ng/ml human IL-17AA + 10 ng/ml human TNFalpha, 68-72 h, IL-8 by HTRF, read-out: Rel EC50 L-8 release assay
T1 construct: host or cells: HEK (human embryonic kidney) cells
T1 sequence (Q16552 24-155) 1: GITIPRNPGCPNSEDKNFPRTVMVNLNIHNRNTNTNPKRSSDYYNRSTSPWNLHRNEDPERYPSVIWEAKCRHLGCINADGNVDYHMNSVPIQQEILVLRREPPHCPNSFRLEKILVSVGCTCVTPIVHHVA
T1 sequence (Q16552 24-155) 2: T1 sequence (Q16552 24-155) 1
Procedure, shortened: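 Adult human keratinocytes in Epilife with HKGS minus hydrocortisone, treated with compound then stimulated with final 3 ng/ml HEK-derived human IL-17AA plus 10 ng/ml TNF-alpha for 68–72 h at 37 °C; TNF-alpha alone defines 100% inhibition. Secreted IL-8 by HTRF; relative IC50 and Emax from four-parameter fits.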

SMILES | EC50
Cc1n[nH]c(C)c1-c1ccc(NC(=O)[C@@H](NC(=O)c2ccnn2C)[C@@H]2CCCc3ccc(-c4ccc(=O)n(C(C)C)c4)cc32)cc1O [Example 33, N-[(1S)-2-[4-(3,5-dimethyl-1H-pyrazol-4-yl)-3-hydroxy-anilino]-1-[(1R)-7-(1-isopropyl-6-oxo-3-pyridyl)tetralin-1-yl]-2-oxo-ethyl]-2-methyl-pyrazole-3-carboxamide] | < 100 nM
Cc1n[nH]c(C)c1-c1ccc(NC(=O)[C@@H](NC(=O)c2ccnn2C)[C@@H]2CCCc3ccc(-c4cnn(C(C)(C)C)c4)cc32)cc1 [Example 34, N-[(1S)-1-[(1R)-7-(1-tert-butylpyrazol-4-yl)tetralin-1-yl]-2-[4-(3,5-dimethyl-1H-pyrazol-4-yl)anilino]-2-oxo-ethyl]-2-methyl-pyrazole-3-carboxamide] | < 100 nM
Cc1n[nH]c(C)c1-c1ccc(NC(=O)[C@@H](NC(=O)c2ccnn2C)[C@@H]2CCCc3ccc(-c4ccc5c(c4)CNC5)cc32)cc1 [Example 35, N-[(1S)-2-[4-(3,5-dimethyl-1H-pyrazol-4-yl)anilino]-1-[(1R)-7-isoindolin-5-yltetralin-1-yl]-2-oxo-ethyl]-2-methyl-pyrazole-3-carboxamide] | < 100 nM
Cc1n[nH]c(C)c1-c1ccc(NC(=O)[C@@H](NC(=O)c2ccnn2C)[C@@H]2CCCc3ccc(-c4ccc5c(c4)CN(C)C5)cc32)cc1 [Example 37, N-[(1S)-2-[4-(3,5-dimethyl-1H-pyrazol-4-yl)anilino]-1-[(1R)-7-(2-methylisoindolin-5-yl)tetralin-1-yl]-2-oxo-ethyl]-2-methyl-pyrazole-3-carboxamide] | < 100 nM
Cc1n[nH]c(C)c1-c1ccc(NC(=O)[C@@H](NC(=O)C2(F)CC2)[C@@H]2CCCc3ccc(-c4ccnc(N5CCNCC5)c4)cc32)cc1 [Example 39, N-[(1S)-2-[4-(3,5-dimethyl-1H-pyrazol-4-yl)anilino]-2-oxo-1-[(1R)-7-(2-piperazin-1-yl-4-pyridyl)tetralin-1-yl]ethyl]-1-fluoro-cyclopropanecarboxamide] | < 100 nM
Cc1ncn(C)c1-c1ccc(NC(=O)[C@@H](NC(=O)c2ccnn2C)[C@@H]2CCCc3ccc(-c4ccc5c(c4)CNC5)cc32)cc1 [Example 42, N-[(1S)-2-[4-(3,5-dimethylimidazol-4-yl)anilino]-1-[(1R)-7-isoindolin-5-yltetralin-1-yl]-2-oxo-ethyl]-2-methyl-pyrazole-3-carboxamide] | 100 to 1000 nM
CC(C)n1cc(-c2ccc3c(c2)[C@H]([C@H](NC(=O)c2ccnn2C)C(=O)Nc2ccc(-c4cncn4C)cc2)CCC3)ccc1=O [Example 44, N-[(1S)-1-[(1R)-7-(1-isopropyl-6-oxo-3-pyridyl)tetralin-1-yl]-2-[4-(3-methylimidazol-4-yl)anilino]-2-oxo-ethyl]-2-methyl-pyrazole-3-carboxamide] | 100 to 1000 nM
CC(C)n1cc(-c2ccc3c(c2)[C@@H]([C@@H](NC(=O)OC(C)(C)C)C(=O)Nc2ccc(-c4cncn4C)cc2)CCC3)ccc1=O [Example 45, tert-butyl N-[(1R)-1-[(1S)-7-(1-isopropyl-6-oxo-3-pyridyl)tetralin-1-yl]-2-[4-(3-methylimidazol-4-yl)anilino]-2-oxo-ethyl]carbamate] | 100 to 1000 nM
CC(C)n1cc(-c2ccc3c(c2)[C@@H]([C@@H](NC(=O)c2ccnn2C)C(=O)Nc2ccc(-c4cncn4C)cc2)CCC3)ccc1=O [Example 48, N-[(1R)-1-[(1S)-7-(1-isopropyl-6-oxo-3-pyridyl)tetralin-1-yl]-2-[4-(3-methylimidazol-4-yl)anilino]-2-oxo-ethyl]-2-methyl-pyrazole-3-carboxamide] | > 1000 nM
CC(C)n1cc(-c2ccc3c(c2)[C@H]([C@H](NC(=O)c2ccnn2C)C(=O)Nc2ccc(-c4cncn4C)c(O)c2)CCC3)ccc1=O [Example 49, N-[(1S)-2-[3-hydroxy-4-(3-methylimidazol-4-yl)anilino]-1-[(1R)-7-(1-isopropyl-6-oxo-3-pyridyl)tetralin-1-yl]-2-oxo-ethyl]-2-methyl-pyrazole-3-carboxamide] | < 100 nM
Cc1ncn(C)c1-c1ccc(NC(=O)[C@@H](NC(=O)c2ccnn2C)[C@@H]2CCCc3ccc(-c4cccc(C(C)(C)N)c4)cc32)cc1 [Example 50, N-[(1S)-1-[(1R)-7-[3-(1-amino-1-methyl-ethyl)phenyl]tetralin-1-yl]-2-[4-(3,5-dimethylimidazol-4-yl)anilino]-2-oxo-ethyl]-2-methyl-pyrazole-3-carboxamide] | 100 to 1000 nM
Cc1n[nH]c(C)c1-c1ccc(NC(=O)[C@@H](NC(=O)C2(F)CC2)C(C)c2cc(-c3ccc(=O)n(C(C)C)c3)ccc2Cl)cc1 (stereo partly drawn) [Example 51, N-[(1S)-2-[2-chloro-5-(1-isopropyl-6-oxo-3-pyridyl)phenyl]-1-[[4-(3,5-dimethyl-1H-pyrazol-4-yl)phenyl]carbamoyl]propyl]-1-fluoro-cyclopropanecarboxamide] | 100 to 1000 nM
CC(c1cc(-c2ccc(=O)n(C(C)C)c2)ccc1Cl)[C@H](NC(=O)OC1CC1)C(=O)Nc1ccc(-c2cncn2C)cc1 (stereo partly drawn) [Example 53, cyclopropyl N-[(1S)-2-[2-chloro-5-(1-isopropyl-6-oxo-3-pyridyl)phenyl]-1-[[4-(3-methylimidazol-4-yl)phenyl]carbamoyl]propyl] carbamate] | 100 to 1000 nM
CC(c1cc(-c2ccc(=O)n(C(C)C)c2)ccc1Cl)C(NC(=O)c1ccnn1C)C(=O)Nc1ccc(-c2cncn2C)cc1 (stereo not drawn) [Example 55, N-[2-[2-chloro-5-(1-isopropyl-6-oxo-3-pyridyl)phenyl]-1-[[4-(3-methylimidazol-4-yl)phenyl]carbamoyl]propyl]-2-methyl-pyrazole-3-carboxamide] | > 1000 nM

Next, values leading:

EC50 | SMILES
100 to 1000 nM | Cc1ncn(C)c1-c1ccc(NC(=O)[C@@H](NC(=O)OC2CC2)[C@@H]2CCCc3ccc(-c4ccnc(N5CCN(C)CC5)c4)cc32)cc1 [Example 32, cyclopropyl N-[(1S)-2-[4-(3,5-dimethylimidazol-4-yl)anilino]-1-[(1R)-7-[2-(4-methylpiperazin-1-yl)-4-pyridyl]tetralin-1-yl]-2-oxo-ethyl]carbamate]
< 100 nM | Cc1n[nH]c(C)c1-c1ccc(NC(=O)[C@@H](NC(=O)c2ccnn2C)[C@@H]2CCCc3ccc(-c4ccc5c(c4)CCN(C)C5)cc32)cc1 [Example 36, N-[(1S)-2-[4-(3,5-dimethyl-1H-pyrazol-4-yl)anilino]-1-[(1R)-7-(2-methyl-3,4-dihydro-1H-isoquinolin-6-yl)tetralin-1-yl]-2-oxo-ethyl]-2-methyl-pyrazole-3-carboxamide]
< 100 nM | Cc1n[nH]c(C)c1-c1ccc(NC(=O)[C@@H](NC(=O)c2ccnn2C)[C@@H]2CCCc3ccc(-c4ccc5c(c4)CCNC5)cc32)cc1 [Example 38, N-[(1S)-2-[4-(3,5-dimethyl-1H-pyrazol-4-yl)anilino]-2-oxo-1-[(1R)-7-(1,2,3,4-tetrahydroisoquinolin-6-yl)tetralin-1-yl]ethyl]-2-methyl-pyrazole-3-carboxamide]
< 100 nM | Cc1ncn(C)c1-c1ccc(NC(=O)[C@@H](NC(=O)C2(F)CC2)[C@@H]2CCCc3ccc(-c4ccnc(N5C[C@@H]6C[C@H]5CN6)c4)cc32)cc1 [Example 40, N-[(1S)-1-[(1R)-7-[2-[(1S,4S)-2,5-diazabicyclo[2.2.1]heptan-2-yl]-4-pyridyl]tetralin-1-yl]-2-[4-(3,5-dimethylimidazol-4-yl)anilino]-2-oxo-ethyl]-1-fluoro-cyclopropanecarboxamide]
100 to 1000 nM | Cc1ncn(C)c1-c1ccc(NC(=O)[C@@H](NC(=O)C2(F)CC2)[C@@H]2CCCc3ccc(-c4ccc5c(c4)CNC5)cc32)cc1 [Example 43, N-[(1S)-2-[4-(3,5-dimethylimidazol-4-yl)anilino]-1-[(1R)-7-isoindolin-5-yltetralin-1-yl]-2-oxo-ethyl]-1-fluoro-cyclopropanecarboxamide]
< 100 nM | Cc1n[nH]c(C)c1-c1ccc(NC(=O)[C@@H](NC(=O)c2ccnn2C)[C@@H]2CCCc3ccc(-c4ccc(=O)n(C(C)C)c4)cc32)cc1O [Example 46, N-[(1S)-2-[4-(3,5-dimethyl-1H-pyrazol-4-yl)-3-hydroxy-anilino]-1-[(1R)-7-(1-isopropyl-6-oxo-3-pyridyl)tetralin-1-yl]-2-oxo-ethyl]-2-methyl-pyrazole-3-carboxamide]
< 100 nM | Cc1n[nH]c(C)c1-c1ccc(NC(=O)[C@@H](NC(=O)C2(F)CC2)[C@@H]2CCCc3ccc(-c4ccc(=O)n(C(C)C)c4)cc32)cc1O [Example 47, N-[(1S)-2-[4-(3,5-dimethyl-1H-pyrazol-4-yl)-3-hydroxy-anilino]-1-[(1R)-7-(1-isopropyl-6-oxo-3-pyridyl)tetralin-1-yl]-2-oxo-ethyl]-1-fluoro-cyclopropanecarboxamide]
> 1000 nM | Cc1ncn(C)c1-c1ccc(NC(=O)[C@@H](NC(=O)C2(F)CC2)C(C)c2cc(-c3ccc(=O)n(C(C)C)c3)ccc2Cl)cc1 (stereo partly drawn) [Example 52, N-[(1S)-2-[2-chloro-5-(1-isopropyl-6-oxo-3-pyridyl)phenyl]-1-[[4-(3,5-dimethylimidazol-4-yl)phenyl]carbamoyl]propyl]-1-fluoro-cyclopropanecarboxamide]
> 1000 nM | CC(c1cccc(-c2ccc(=O)n(C(C)C)c2)c1)[C@H](NC(=O)c1ccnn1C)C(=O)Nc1ccc(-c2cncn2C)cc1 (stereo partly drawn) [Example 56, N-[(1S)-2-[3-(1-isopropyl-6-oxo-3-pyridyl)phenyl]-1-[[4-(3-methylimidazol-4-yl)phenyl]carbamoyl]propyl]-2-methyl-pyrazole-3-carboxamide]
< 100 nM | Cc1n[nH]c(C)c1-c1ccc(NC(=O)[C@H](Cc2cc(-c3cccc(C(C)(C)O)c3)ccc2Cl)NC(=O)c2ccnn2C)cc1 [Example 58, N-[(1S)-1-[[2-chloro-5-[3-(1-hydroxy-1-methyl-ethyl)phenyl]phenyl]methyl]-2-[4-(3,5-dimethyl-1H-pyrazol-4-yl)anilino]-2-oxo-ethyl]-2-methyl-pyrazole-3-carboxamide]
